1 molecule from publication PMC4772870 (2015) can be followed below.

The test system of this assay is d(ATGCAT)2 (DNA, duplex) ATGCAT. The assay can be described thus: melting temperature. Particulars: derived from two Tm (~30 free, ~45 complex); reviewed from authors' ref 23.

Consider `Cc1cccc2nc3cccc(C(=O)NCCNCCNCCNC(=O)c4cccc5nc6cccc(C)c6nc45)c3nc12`, for which the dTm was ~ 15 °C.
